# Numbered stars: 1 amine (or outer) side, 2 acyl side, 3 side chain; on linkers, the order of the positions; unused ones are H or OH. Square brackets hold non-standard residues; d marks the D form. Peptide text beside a SMILES is read from it. * marks the point of attachment. Ala(6-iPr-benzothiazol-2-yl) = CC(C)c1ccc2nc(C[C@H](N)C(=O)O)sc2c1; Ala(benzothiazol-2-yl) = N[C@@H](Cc1nc2ccccc2s1)C(=O)O; Abu(4,4,4-F3) = N[C@@H](CC(F)(F)F)C(=O)O; 2Nal = N[C@@H](Cc1ccc2ccccc2c1)C(=O)O; Gly(cPent) = N[C@H](C(=O)O)C1CCCC1; tBuAla = CC(C)(C)C[C@H](N)C(=O)O; CO = O=C([*:1])[*:2]; Propionyl = CCC(=O)*
# Target: DCN1 (Homo sapiens (Human), UniProt Q96GG9)
# Sequence (Q96GG9 58-259): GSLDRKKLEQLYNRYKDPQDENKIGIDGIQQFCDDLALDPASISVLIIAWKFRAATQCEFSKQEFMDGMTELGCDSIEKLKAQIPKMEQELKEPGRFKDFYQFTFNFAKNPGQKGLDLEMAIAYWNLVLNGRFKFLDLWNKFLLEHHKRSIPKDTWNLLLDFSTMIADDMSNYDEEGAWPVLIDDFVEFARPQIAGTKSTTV
# Assay: Competitive FP binding assay
# Settings: bounds given in μM; read-out: Binding affinity to DCN1 (IC50)
# Outline: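 FP competition with DCN1 in 100 mM phosphate pH 6.5, 0.02% Tween-20, 2% DMSO, probe 5 nM final. Equilibrated 30 min at room temperature with shaking. DCN1 was His6-tagged (uncleaved), expressed in E. coli Rosetta2 and purified by Ni-NTA and gel filtration.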
row,SMILES,IC50 [µM]
1,CCC(=O)N[C@@H](Cc1nc2ccc(Cl)cc2s1)C(=O)N[C@@H](C)CN [Example 220],> 10
2,CCC(=O)N[C@H](CNC(=O)C1(N)CCC(F)(F)CC1)Cc1nc2ccc(C(C)C)cc2s1 [Example 111],> 5
3,CCC(=O)N[C@@H](Cc1nc(C)c(-c2ccc(C#N)cc2)s1)C(=O)N[C@H](CN)Cc1ccccc1 [Example 105],> 10
4,CCC(=O)N[C@H](Cc1nc2ccc(Cl)cc2s1)C(=O)N[C@H](C(=O)N[C@@H](CCCCN)C(=O)N[C@@H]1CNCc2ccccc21)C1CCOCC1 [Example 44],> 1
5,CCC(=O)N[C@@H](Cc1nc2ccc(Cl)cc2s1)C(=O)N[C@@H](CN)Cc1ccccc1 (stereo in doubt) [Example 88],> 10
6,"CC[C@H](C)[C@@H](CN)NC(=O)[C@H](Cc1nc2ccc(C(C)C)cc2s1)NC=O [Example 48, (S)—N-((2S,3S)-1-amino-3-methylpentan-2-yl)-2-formamido-3-(6-isopropylbenzo[d]thiazol-2-yl)propanamide]",> 5
7,CC(C)C(=O)N[C@@H](Cc1nc2ccc(C(C)C)cc2s1)C(=O)NCCN [Example 95],> 10
8,CCC(=O)N[C@@H](Cc1nc(CC)c(-c2ccccc2)s1)C(=O)N[C@H](CN)Cc1ccccc1 [Example 225],> 3
9,CCC(=O)N[C@@H](Cc1nc(C)c(-c2ccccn2)s1)C(=O)N[C@H](CN)Cc1ccccc1 [Example 228],> 10
10,CCC(=O)N[C@@H](Cc1nc2ccc(Cl)cc2s1)C(=O)N[C@H](C(=O)N[C@@H](CCCCN)C(=O)N[C@@H]1CCOc2ccccc21)C1CCNCC1 [Example 35],> 5
11,CC(C)CC(C)C(=O)N[C@@H](Cc1nc2ccc(C(C)C)cc2s1)C(=O)NCCN (stereo partly shown) [97 & 98],> 10
12,CCC(=O)N[C@@H](Cc1nc2ccc(C(C)C)cc2s1)C(=O)N[C@@H](CN)Cc1ccccc1 [Example 90],> 5
13,COCCC(=O)N[C@@H](Cc1nc2ccc(Cl)cc2s1)C(=O)NCCN [Example 236],> 10
14,CC[C@H](C)[C@H](NC(=O)[C@H](Cc1ccc2ccccc2c1)NC(=O)NC)C(=O)N[C@@H](CCCCN)C(=O)N[C@@H](CC(C)C)C(N)=O [Example 169] ({NHMe-CO}-[2Nal]IKL-NH2),> 10
15,CCC(=O)N[C@H](Cc1nc2ccc(Cl)cc2s1)C(=O)N[C@@H](C(=O)N[C@H](CCCCN)C(=O)N[C@H]1CCOc2ccccc21)C1CCOCC1 [Example 204],> 10

# Same assay, conditions: read-out: Binding affinity to DCN1 (IC50 (nM))
row,SMILES,IC50 [µM]
1,CCC(=O)N[C@@H](Cc1nc2ccc(C(C)C)cc2s1)C(=O)N[C@@H](CC(C)(C)C)C(=O)N[C@@H](CCCCN)C(=O)N[C@@H](CC(C)C)C(N)=O [Example 283] (Propionyl-[Ala(6-iPr-benzothiazol-2-yl)][tBuAla]KL-NH2),0.083
2,CCC(=O)N[C@@H](Cc1nc(C)c(-c2cccc(Cl)c2)s1)C(=O)N[C@H](C(=O)N[C@@H](CCCCN)C(=O)N[C@@H]1CCOc2ccccc21)C1CCOCC1 [Example 207],0.139
3,CCC(=O)N[C@@H](Cc1ccc2ccccc2c1)C(=O)N[C@H](C(=O)N[C@@H](CCCCN)C(=O)N[C@@H]1CNCc2ccccc21)C1CCCC1 [Example 160],0.457
4,CCC(=O)N[C@@H](Cc1cc2ccccc2cn1)C(=O)N[C@H](C(=O)N[C@@H](CCCCN)C(=O)NC(c1ccccc1)c1ccccc1)[C@@H](C)CC [Example 131],2.61
5,CCC(=O)N[C@@H](Cc1ccc2ccccc2c1)C(=O)N[C@H](C(=O)N[C@@H](CCCCN)C(=O)NC(c1ccc(Cl)cc1)c1ccc(Cl)cc1)[C@@H](C)CC [Example 129],0.748
6,CCC(=O)N[C@H](CNC(=O)C1CCCCC1)Cc1nc2ccc(Cl)cc2s1 [Example 254],1.34
7,CCC(=O)N[C@@H](Cc1nc2ccc(Cl)cc2s1)C(=O)N[C@H](C(=O)N[C@@H](CCCCN)C(=O)N[C@@H]1CCOc2ccccc21)C1CCOCC1 [Example 37],0.049
8,CCC(=O)N[C@H](CNC(=O)C1(N)CCOCC1)Cc1nc2ccc(C(C)C)cc2s1 [Example 112],5.06
9,"CC[C@H](C)[C@H](NC(=O)[C@H](Cc1nc2ccc(Cl)cc2s1)NC(C)=O)C(=O)N[C@@H](CCCCN)C(=O)N[C@@H](CC(C)C)C(N)=O [Example 4, (S)-2-((2S,3 S)-2-((S)-2-acetamido-3-(6-chlorobenzo[d]thiazol-2-yl)propanamido)-3-methylpentanamido)-6-amino-N—((S)-1-amino-4-methyl-1-oxopentan-2-yl)hexanamide]",0.116
10,"CCC(=O)N[C@@H](Cc1nc2ccc(C(C)C)cc2s1)C(=O)N[C@@H](CC(F)(F)F)C(=O)N[C@@H](CCCCN)C(=O)N[C@@H](CC(C)C)C(N)=O [Example 284] (Propionyl-[Ala(6-iPr-benzothiazol-2-yl)][Abu(4,4,4-F3)]KL-NH2)",0.154
11,CCC(=O)N[C@@H](Cc1cn2cc(C(C)C)ccc2n1)C(=O)N[C@H](C(=O)N[C@@H](CCCCN)C(=O)N[C@@H]1CCOc2ccccc21)C1CCOCC1 [210 & 211],0.0812
12,CCC(=O)N[C@@H](Cc1nc2ccc(Cl)cc2s1)C(=O)N[C@H](C(=O)NCCCCCN(C)C)C1CCCC1 [Example 224],0.575
13,CCC(=O)N[C@@H](Cc1nc(C)c(-c2cccc(Cl)c2)s1)C(=O)N[C@H](CN)C1CCCCC1 [Example 107],0.704
14,CCC(=O)N[C@@H](Cc1nc2ccc(C(C)C)cc2s1)C(=O)N[C@H](Cn1cc(CN)nn1)C1CCCCC1 [Example 82],0.243
15,CCC(=O)N[C@@H](Cc1nc2ccc(Cl)cc2s1)C(=O)N[C@H](CNC(=O)[C@H](C)CN1CCOCC1)Cc1ccccc1 [Example 226],0.611
16,CCC(=O)N[C@@H](Cc1nc2ccc(C(C)C)cc2s1)C(=O)N[C@H](CNC(=O)C1CCN(C2COC2)CC1)C1CCCCC1 [Example 63],0.0673
17,CCC(=O)N[C@@H](Cc1nc2ccc(C)cc2s1)C(=O)N[C@H](C(=O)N[C@@H](C[C@H]1CC[C@H](CN)CC1)C(=O)N[C@@H]1CCOc2ccccc21)C1CCOCC1 [Example 189],0.23
18,CCC(=O)N[C@@H](Cc1nc2ccc(C(C)C)cc2s1)C(=O)N[C@H](CNC(=O)C1CCN(CCF)CC1)C1CCCCC1 [Example 74],0.112
19,CCC(=O)N[C@@H](Cc1ccc2ccccc2c1)C(=O)N[C@H](C(=O)N[C@@H](CCCCN(C)C)C(=O)NC(c1ccc(F)cc1)c1ccc(F)cc1)C1CCCC1 [Example 140],0.483

row,SMILES,IC50 [µM]
1,CCC(=O)N[C@@H](Cc1nc(C)c(-c2cccc(Cl)c2)s1)C(=O)N[C@H](CN)Cc1ccccc1 [Example 103],0.264
2,CCC(=O)N[C@@H](Cc1ccc2ccccc2c1)C(=O)N[C@@H](CC1CCCCC1)C(=O)N[C@@H](CCCCN)C(=O)NC(c1ccccc1)c1ccccc1 [Example 21],0.29
3,"CC[C@H](C)[C@H](NC(=O)[C@H](Cc1nc2ccccc2s1)NC(C)=O)C(=O)N[C@@H](CCCCN)C(=O)N[C@@H](CC(C)C)C(N)=O [Example 2, (S)-2-((2S,3 S)-2-((S)-2-acetamido-3-(benzo[d]thiazol-2-yl)propanamido)-3-methylpentanamido)-6-amino-N—((S)-1-amino-4-methyl-1-oxopentan-2-yl)hexanamide] (Ac-[Ala(benzothiazol-2-yl)]IKL-NH2)",0.322
4,CCC(=O)N[C@@H](Cc1nc2ccc(C(C)C)cc2s1)C(=O)N[C@H](C(=O)N[C@@H](CCCCN)C(=O)N[C@@H](CC(C)C)C(N)=O)C(C)C [Example 282] (Propionyl-[Ala(6-iPr-benzothiazol-2-yl)]VKL-NH2),0.072
5,CCC(=O)N[C@@H](Cc1nc2ccc(Cl)cc2s1)C(=O)N[C@H](C(=O)N[C@@H](CCCCN)C(=O)N[C@H]1CNCc2ccccc21)C1CCCC1 [Example 162],0.797
6,CCC(=O)N[C@@H](Cc1nc(C)c(-c2cccc(F)c2)s1)C(=O)N[C@H](CN)Cc1ccccc1 [Example 234],1.28
7,"CCC(=O)N[C@@H](Cc1nc2ccc(C(C)C)cc2s1)C(=O)N[C@H](CN(C)C)C1CCCCC1 [Example 79, (S)—N—((S)-1-cyclohexyl-2-(dimethylamino)ethyl)-3-(6-isopropylbenzo[d]thiazol-2-yl)-2-propionamidopropanamide]",0.0936
8,CCC(=O)N[C@@H](Cc1nc2ccccc2s1)C(=O)N[C@H](C(=O)N[C@@H](CCCCN)C(=O)NC(c1ccccc1)c1ccccc1)[C@@H](C)CC [Example 152],0.376
9,CCC(=O)N[C@H](CNC(=O)C1(N)CCCCCC1)Cc1nc2ccc(C(C)C)cc2s1 [Example 115],2.39
10,CCC(=O)N[C@@H](Cc1nc2ccc(C(C)C)cc2s1)C(=O)N[C@H](C(=O)N[C@@H](CCCCN)C(=O)N[C@@H](CC(C)C)C(N)=O)C1CCCC1 [Example 285] (Propionyl-[Ala(6-iPr-benzothiazol-2-yl)][Gly(cPent)]KL-NH2),< 0.1
11,CCC(=O)N[C@@H](Cc1nc2ccc(Cl)cc2s1)C(=O)N[C@H](C(=O)N[C@@H](CC1CCNCC1)C(=O)N[C@@H]1CCOc2ccccc21)C1CCOCC1 [Example 41],0.222
12,CCC(=O)N[C@@H](Cc1nc2ccc(Cl)c(Cl)c2s1)C(=O)N[C@H](CN)Cc1ccccc1 [Example 221],0.294
13,CCC(=O)N[C@@H](Cc1nc(C)c(-c2ccccc2)s1)C(=O)N[C@H](CN)Cc1ccccc1 [Example 101],1.74
14,CCC(=O)N[C@@H](Cc1ccc2ccccc2c1)C(=O)N[C@H](C(=O)N[C@@H](CCCCN)C(=O)N[C@@H]1CCCc2ccccc21)C1CCCC1 [Example 148],0.402
15,CCC(=O)N[C@@H](Cc1ccc2ccccc2c1)C(=O)N[C@H](C(=O)N[C@@H](CCCCN)C(=O)N[C@@H]1CCOc2cc(Cl)ccc21)C1CCCC1 [Example 165],0.122
16,CCC(=O)N[C@@H](Cc1nc2ccc(Cl)cc2s1)C(=O)N[C@H](C(=O)N[C@@H](CCCCN)C(=O)N[C@@H]1CCOc2ccccc21)C1CCCC1 [Example 33],0.103
17,CCC(=O)N[C@@H](Cc1nc2ccc(Cl)cc2s1)C(=O)N[C@H](C(=O)N[C@@H](CCCCN)C(=O)NC(c1ccc(F)cc1)c1ccc(F)cc1)C1CCCC1 [Example 158],0.307
18,CCC(=O)N[C@@H](Cc1nc2ccc(Cl)cc2s1)C(=O)N[C@H](CN)CC1CCCCC1 [Example 218],0.316
